{"source": "patent US10166267B1", "about": "“Multi-component formulations for the treatment of cognitive decline including Alzheimer's disease” (priority 2010, dated 2019)", "key": {"primary chicken neurons": {"tested_on": "primary chicken neurons", "assay": "MTT cell viability assay on primary chicken neurons, components applied for forty-eight hours", "type": "cell-based", "conditions": "for effect on cell viability: 48 h", "procedure": "Further tests were conducted to assess the neuroprotective effects of a number of the components previously disclosed herein at various concentrations on primary chicken neurons, individually and in select combinations. The study components were applied to test specimens obtained on embryonic day 8 in vitro (“DIV8”) for a period of forty-eight hours, after which, the test specimens were evaluated in accordance with MTT assay to determine cell viability.\nOne day old fertilized eggs were stored under appropriate conditions until the start of breeding. On embryonic day zero, eggs were transferred to a breeding incubator and maintained under turning at 37.8° C. and 55% humidity until embryonic day eight.\nAll cell culture experiments were carried out under sterile conditions and all procedures were performed in a cell culture unit with special cell culture equipment. Glassware, forceps ad/or scissors were sterilized prior to experiments. Stock chemical solutions were obtained sterile, and final solution and culture medium were prepared fresh in a laminar airflow cabinet.\nNeurons were prepared as follows. DIV8 embryos were transferred to plastic dish and decapitated. Bother hemispheres were removed, collected, and cleaned from any loose tissue. Hemispheres were then mechanically disassociated and 4.8×10^4 cells per well in a 96-well plate, and each well was seeded with 160 μL.\nThe cell culture medium for chicken telencephalon neurons consists of DMEM with 4.5 grams glucose, 5% Nu Serum, 0.01% gentamycin, and 2 mM L-glutamine. Cultures are maintained at 37° C., 95% humidity and 5% CO2.\nThe study component(s) and vehicle controls (“VC”) were applied to chicken neurons at DIVE for forty-eight hours. The viability of the chicken neurons at DIV10 were determined according to an MTT cell viability assay.\nMTT Cell Viability Assay: The viability of the chicken neurons were determined by MTT assay using a plate reader at 570 nanometers as described in SOP MET004. The assay measures the mitochondrial dehydrogenase activity which reduces yellow MTT to dark blue formazan crystals. As the reaction is catalyzed only in living cells, the assay is used to determine cell viability. MTT is added to each well at a concentration of 0.5 milligrams per milliliter. After two hours, the MTT containing medium is aspirated. Cells are lysed in 3% SDS and the formazan crystals are dissolved in isopropanol/hydrochloric acid. Optical density is measured with a plate-reader at a wavelength of 570 nanometers.\nCell survival rate is expressed as optical density, and values are calculated as a percentage of the vehicle control values, the vehicle control being 100%."}, "[1]": {"conditions": "cited from earlier work"}}, "data": [{"smiles": "O=C(COP(=O)(O)O)[C@@H](O)[C@H](O)[C@H](O)COP(=O)(O)O", "note": "[FDP, Fructose 1,6-diphosphate]", "values": [{"measurement": "effect on cell viability", "setting": "primary chicken neurons; FDP highest concentrations 50, 10 and 5 mM", "value": "toxic effects"}, {"measurement": "effect on cell viability", "setting": "primary chicken neurons; FDP, other applied concentrations", "value": "no significant effects"}]}, {"smiles": "C[S+](C)[O-]", "note": "[DMSO, Dimethyl sulfoxide]", "values": [{"measurement": "DMSO converted to MSM in the body", "setting": "[1]", "value": "approximately 15%"}, {"measurement": "effect on cell viability", "setting": "primary chicken neurons; DMSO 5%, vs vehicle treated cells", "value": "toxic effects"}, {"measurement": "effect on cell viability", "setting": "primary chicken neurons; DMSO, all other concentrations tested, vs vehicle treated cells", "value": "minor negative effect on cell viability"}]}, {"smiles": "COc1cc(/C=C/C(=O)CC(=O)/C=C/c2ccc(O)c(OC)c2)ccc1O", "note": "[Curcumin, curcumin]", "values": [{"measurement": "protective effects, curcumin alone vs in combination with MSM/FDP", "setting": "primary chicken neurons; Part 3, curcumin applied alone", "value": "protective effects only in combinations with MSM/FDP but not when applied alone"}, {"measurement": "effect on cell viability", "setting": "primary chicken neurons; curcumin 50, 20, 10 and 5 μM, vs vehicle", "value": "negative effects on cell viability"}, {"measurement": "effect on cell viability", "setting": "primary chicken neurons; curcumin lowest concentration 0.01 μM, vs vehicle", "value": "positive influence on cell viability"}]}, {"smiles": "CS(C)(=O)=O", "note": "[MSM, Methylsulfonylmethane]", "values": [{"measurement": "concentration of MSM relative to DMSO achieving the same effects on cell viability", "setting": "primary chicken neurons; MSM 0.1 μM vs DMSO 12.8 μM in combinations", "value": 128, "unit": "times less concentrated"}, {"measurement": "effects on cell viability in the combinations, MSM vs DMSO", "setting": "primary chicken neurons; MSM 0.0001 mM = 0.1 μM vs DMSO 12.8 μM = 0.0001%", "value": "same effects on cell viability"}, {"measurement": "effect on cell viability", "setting": "primary chicken neurons; MSM highest concentration 50 mM", "value": "minor negative effect"}, {"measurement": "tolerance by cells when applied alone", "setting": "primary chicken neurons; MSM vs DMSO, each applied alone", "value": "tolerated MSM better than DMSO"}, {"measurement": "effect on cell viability", "setting": "primary chicken neurons; MSM, all other applied concentrations, increase seen at 1 and 0.01 mM", "value": "no or even a slight increase in cell viability"}]}, {"smiles": "Oc1ccc(C=Cc2cc(O)cc(O)c2)cc1", "note": "[Resveratrol, resveratrol]", "values": [{"measurement": "effect on cell viability", "setting": "primary chicken neurons; resveratrol 20, 10 and 5 μM, vs vehicle", "value": "positive effects on cell viability"}, {"measurement": "effect on cell viability", "setting": "primary chicken neurons; resveratrol 50 and 100 μM, vs vehicle", "value": "toxic to cells"}, {"measurement": "cell viability compared to resveratrol (20 μM) plus DMSO/FDP", "setting": "primary chicken neurons; resveratrol alone 20 μM", "value": "even better effects on cell viability"}]}]}
